Earlier results, collected in patent US20180243418A1, “SYSTEMS AND METHODS FOR TARGETED CANCER THERAPIES” (American University of Sharjah, priority 2017, published 2018).

Legend:
[1] = test system: human and mice melanoma cells; conditions: melanoma cells treated for about 8 hours
VX2 carcinoma cells = conditions: rabbits implanted with VX2 carcinoma cells, intravenous

COc1cccc2c1C(=O)c1c(O)c3c(c(O)c1C2=O)C[C@@](O)(C(=O)CO)C[C@@H]3O[C@H]1C[C@H](N)[C@H](O)[C@H](C)O1 [free Dox, doxorubicin]
accumulation in the nucleus, of the initial amount [1]: about 26% | initial concentration detected in the cell cytoplasm [1]: about 0.5% | concentration of Dox in tumors (VX2 carcinoma cells): about 4.0±1.0 μg Dox/g tissues
